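Five concentrations, 48 hours, 96-well plates. At the GI50, growth is halved.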 Active and inactive are the calls of the source. Cut-off read from the data, not from the text of the source: active = GI50 up to about 1.1 µM and inactive = higher.
What was measured:
Assay in all cases: growth of human tumour cells (NCI), 48 h
786-0 = tested on: 786-0
BT-549 = tested on: BT-549
HOP-62 = tested on: HOP-62
HT-29 = tested on: HT-29
IGROV-1 = tested on: IGROV-1
KM12 = tested on: KM12
M14 = tested on: M14
MDA-MB-231 = tested on: MDA-MB-231
MOLT-4 = tested on: MOLT-4
OVCAR-4 = tested on: OVCAR-4
OVCAR-8 = tested on: OVCAR-8
PC-3 = tested on: PC-3
RPMI-8226 = tested on: RPMI-8226
SF-268 = tested on: SF-268
SF-295 = tested on: SF-295
SK-OV-3 = tested on: SK-OV-3
SN12C = tested on: SN12C
SNB-75 = tested on: SNB-75
NCI-H23 = tested on: NCI-H23
SF-539 = tested on: SF-539

Measured: GI50

CN(C)CCNC1=Nc2ccccc2C(=S)N2CSCC12 (configuration not stated)
inactive: 786-0 > 100 µM | BT-549 > 100 µM | HOP-62 > 100 µM | HT-29 > 100 µM | IGROV-1 > 100 µM | KM12 > 100 µM | M14 > 100 µM | MDA-MB-231 > 100 µM | MOLT-4 > 100 µM | OVCAR-4 > 100 µM | OVCAR-8 > 100 µM | PC-3 > 100 µM | RPMI-8226 > 100 µM | SF-268 > 100 µM | SF-295 > 100 µM | SK-OV-3 > 100 µM | SN12C > 100 µM | SNB-75 > 100 µM

C[N+](C)(CCNC(=O)c1cccc2cc3ccccc3nc12)Cc1ccc([N+](=O)[O-])s1
inactive: 786-0 > 25 µM | BT-549 > 25 µM | HOP-62 > 25 µM | HT-29 > 25 µM | IGROV-1 > 25 µM | KM12 > 25 µM | M14 > 25 µM | MDA-MB-231 > 25 µM | MOLT-4 > 25 µM | NCI-H23 > 25 µM | OVCAR-8 > 25 µM | PC-3 > 25 µM | RPMI-8226 > 25 µM | SF-268 > 25 µM | SF-295 > 25 µM | SK-OV-3 > 25 µM | SN12C > 25 µM | SNB-75 > 25 µM

CCN(CC)C(=S)SS(=O)(=O)c1ccc(NC(C)=O)cc1
inactive: 786-0 17.5 µM | BT-549 39.3 µM | HOP-62 18.1 µM | HT-29 24.8 µM | KM12 55.8 µM | M14 17.1 µM | MDA-MB-231 17 µM | NCI-H23 24 µM | OVCAR-4 20.4 µM | OVCAR-8 15.7 µM | PC-3 27.1 µM | RPMI-8226 18.5 µM | SF-268 28.9 µM | SF-295 28.2 µM | SK-OV-3 40.5 µM | SN12C 18.2 µM | SNB-75 25.4 µM

CCNC(=S)N/N=C1\C(=O)Nc2ccc([N+](=O)[O-])cc21
inactive: 786-0 19.1 µM | BT-549 > 100 µM | HOP-62 27.7 µM | HT-29 49.5 µM | IGROV-1 31.6 µM | KM12 52.7 µM | M14 46.7 µM | MDA-MB-231 35.3 µM | MOLT-4 22.4 µM | NCI-H23 > 100 µM | OVCAR-4 25.6 µM | OVCAR-8 34.7 µM | PC-3 97.5 µM | RPMI-8226 > 100 µM | SF-268 44.7 µM | SF-295 29.3 µM | SF-539 30.2 µM | SK-OV-3 39.4 µM | SN12C 31.7 µM

COCCNc1cncc(C(N)=O)c1
inactive: 786-0 > 100 µM | BT-549 > 100 µM | HOP-62 > 100 µM | HT-29 > 100 µM | IGROV-1 > 100 µM | KM12 > 100 µM | M14 > 100 µM | MDA-MB-231 > 100 µM | MOLT-4 > 100 µM | NCI-H23 > 100 µM | OVCAR-4 > 100 µM | OVCAR-8 > 100 µM | PC-3 > 100 µM | SF-268 > 100 µM | SF-295 > 100 µM | SF-539 > 100 µM | SK-OV-3 > 100 µM | SN12C > 100 µM | SNB-75 87.9 µM

Cc1c(/C=N\NC(=S)NCCNC(=S)N/N=C\c2c(C)n(C)n(-c3ccccc3)c2=O)c(=O)n(-c2ccccc2)n1C
inactive: 786-0 > 100 µM | BT-549 > 100 µM | HOP-62 > 100 µM | HT-29 > 100 µM | KM12 > 100 µM | M14 > 100 µM | MDA-MB-231 54.8 µM | MOLT-4 > 100 µM | NCI-H23 > 100 µM | OVCAR-4 > 100 µM | PC-3 > 100 µM | SF-268 > 100 µM | SF-295 > 100 µM | SF-539 > 100 µM | SK-OV-3 > 100 µM | SNB-75 38 µM

CC(C)C(N)C(=O)NC(CCC(=O)NCCCCC(N)C(=O)NCCCNc1ccc([N+](=O)[O-])c2[nH]c3ccccc3c(=O)c12)C(N)=O (configuration not stated)
inactive: 786-0 35.8 µM | BT-549 13.7 µM | HOP-62 92.3 µM | KM12 > 100 µM | M14 75.3 µM | MDA-MB-231 41.2 µM | NCI-H23 88.7 µM | OVCAR-4 20.6 µM | OVCAR-8 31.2 µM | PC-3 56.6 µM | RPMI-8226 33.7 µM | SF-268 58.7 µM | SF-295 55.7 µM | SK-OV-3 44.3 µM | SNB-75 48.9 µM

Cc1ccc(C(=O)/C(C#N)=C/Nc2c(C)n(C)n(-c3ccccc3)c2=O)cc1
inactive: 786-0 > 100 µM | BT-549 > 100 µM | HOP-62 > 100 µM | HT-29 > 100 µM | IGROV-1 > 100 µM | KM12 > 100 µM | M14 > 100 µM | MDA-MB-231 > 100 µM | MOLT-4 > 100 µM | NCI-H23 > 100 µM | OVCAR-4 > 100 µM | PC-3 > 100 µM | RPMI-8226 > 100 µM | SF-268 > 100 µM | SF-295 > 100 µM | SF-539 > 100 µM | SK-OV-3 > 100 µM | SN12C > 100 µM

CCCCOC(=O)Nc1ccc(S(=O)(=O)Nc2ccccc2Cl)cc1
inactive: 786-0 21.5 µM | BT-549 22.5 µM | HOP-62 21.7 µM | HT-29 21 µM | IGROV-1 21.7 µM | KM12 24 µM | M14 19.8 µM | MDA-MB-231 21 µM | MOLT-4 12.6 µM | NCI-H23 25.6 µM | OVCAR-4 12.4 µM | OVCAR-8 21.3 µM | PC-3 24.9 µM | RPMI-8226 16.3 µM | SF-268 16.9 µM | SF-295 17.3 µM | SF-539 17.6 µM | SK-OV-3 16.8 µM | SN12C 21.2 µM

Clc1ccc(-c2nc(-c3ccc(Cl)cc3)[s+]s2)cc1
inactive: 786-0 38 µM | BT-549 72.9 µM | HOP-62 34 µM | HT-29 48.1 µM | IGROV-1 19.7 µM | KM12 42.1 µM | M14 > 100 µM | MDA-MB-231 46.9 µM | MOLT-4 26.6 µM | NCI-H23 78 µM | OVCAR-4 27.7 µM | OVCAR-8 39.8 µM | PC-3 > 100 µM | RPMI-8226 32.6 µM | SF-268 37.2 µM | SF-295 > 100 µM | SF-539 29.7 µM | SK-OV-3 41.1 µM | SN12C 96.4 µM

C/C=C1\CC(C(=O)OCC)CCCCCCC1=O (configuration not stated)
inactive: 786-0 > 100 µM | BT-549 > 100 µM | HOP-62 > 100 µM | HT-29 > 100 µM | IGROV-1 > 100 µM | KM12 > 100 µM | M14 > 100 µM | MDA-MB-231 > 100 µM | MOLT-4 > 100 µM | NCI-H23 > 100 µM | OVCAR-4 > 100 µM | OVCAR-8 > 100 µM | PC-3 > 100 µM | SF-268 > 100 µM | SF-295 > 100 µM | SF-539 > 100 µM | SK-OV-3 > 100 µM | SN12C > 100 µM | SNB-75 69 µM

From ChEMBL document CHEMBL1201862, “PubChem BioAssay data set” (2004)
